Data reported in US20250115628A1, “FLUORINATED FLUOROPHORES” (HOWARD HUGHES MEDICAL INSTITUTE, priority 2023, published 2025).
Where two headings read alike, the source gives them in different places.

Assays:
[1] = General UV-vis and fluorescence spectroscopy; type: physicochemical; conditions: rhodamine derivatives; 10 mM HEPES, pH 7.3
Procedure: Spectroscopy was performed using 1^−cm path length, 3.5^−mL quartz cuvettes or 1^−cm path length, 1.4^−mL semi-micro quartz cuvettes from Starna Cells. All measurements were taken at ambient temperature (22±2° C.). Absorption spectra were recorded on a Cary Model 100 spectrometer (Agilent), and fluorescence spectra were recorded on a Cary Eclipse fluorometer (Varian). The spectra, maximum absorption wavelength (labs), extinction coefficient at λabs (8), and maximum emission wavelength (em) were measured in 10 mM HEPES, pH 7.3 buffer (rhodamines and Malachite Green derivative 49) or 0.1 M NaOH (fluoresceins); the reported values for e are averages (n=3). Normalized spectra are shown for clarity.

[2] = Quantum yield determination; type: physicochemical; conditions: rhodamine derivatives; 10 mM HEPES, pH 7.3
Procedure: All reported absolute fluorescence quantum yield values (Φf) were measured using a Quantaurus-QY spectrometer (model C11374, Hamamatsu). This instrument uses an integrating sphere to determine photons absorbed and emitted by a sample. Measurements were carried out using dilute samples (A<0.1), and self-absorption corrections were performed using the instrument software.^81

[3] = Determination of KL-Z (lactone-zwitterion equilibrium constant); type: physicochemical; parameters: key: KL-Z = (εdw/εmax)/(1−εdw/εmax); εdw measured in 1:1 dioxane/water; conditions: rhodamine derivatives; 1:1 dioxane:H2O
Procedure: KL-Z was calculated using the following equation:^16, 18 KL-Z=(εdw/εmax)/(1−εdw/εmax). εdw is the extinction coefficient of the dyes in a 1:1 (v/v) dioxane/water solvent mixture; this dioxane/water mixture was chosen to give the maximum spread of KL-Z values across all classes of rhodamines.^18 εmax refers to the maximal extinction coefficients measured in different solvent mixtures empirically determined depending on dye type: 0.1% v/v trifluoroacetic acid in ethanol for 18, 20, 29, 34, 36, 70-72, 81-83, 93-95, 99-102, and 104; 0.1% v/v trifluoroacetic acid in 2,2,2^−trifluoroethanol for all other rhodamine variants. A accurate determination of low KL-Z values is complicated by the relatively poor sensitivity of absorbance measurements.

[4] = test system: JM8·N4 mouse embryonic stem cells stably expressing histone H2B-HaloTag® fusion proteins; assay: Single-particle tracking (SPT) experiments; type: cell-based; conditions: for performance in SPT experiments compared with 1HTL and 89HTL: HaloTag® ligands, 50 Hz imaging
Procedure: SPT experiments were carried out as previously described.^84 JM8·N4 mouse embryonic stem cells (ESCs) stably expressing histone H2B-HaloTag® fusion proteins were generated by co-expressing the PiggyBac EF1a-H2B-HaloTag®-IRES-Neo vector with the super piggyBac transposase as described previously,85 followed by G418 selection (500 μg/mL) for 2 weeks and verified by FACS sorting/confocal imaging staining with JF549-HaloTag® ligand (84HTL; 100 nM, 30 min). Cells were seeded on 25 mm #1.5 coverglass pre-cleaned with KOH and ethanol and coated with iMatrix-511 (TaKaRa #T304) or rhLaminin-521 (Gibco™ #A^29248) according to the manufacturers' instruction. All live-cell imaging experiments were conducted using an ESC imaging medium composed of FluoroBrite DMEM (ThermoFisher) plus 15% v/v ESC-qualified FBS, 1× GlutaMax, 1×NEAA, 0.1 mM 2^−mercaptoethanol, and LIF. For comparison of 59HTL and 89HTL (FIG. 13E, 13F) the histone H2B-HaloTag® ESCs were stained with 5 nM 59HTL for 1 h or 0.1 nM 89HTL for 15 min at 37° C. with 5% (v/v) CO2 to achieve sparse labeling with approximately equal localizations per region of interest (ROI), and then washed with dye-free media 3× for 30 min each wash For comparison of 40HTL, 44HTL, 1HTL, or 89HTL (FIG. 12A-12G) the histone H2B-HaloTag® ESCs were stained with 1 nM of HaloTag® ligands for 15 min at 37° C. with 5% (v/v) CO2 to achieve sparse labeling, and then washed with dye-free media 3× for 30 min each wash.
To quantify the brightness and photostability of the HaloTag® ligands, labeled cells were mounted onto a high speed motorized Nikon Eclipse Ti-E inverted microscope equipped with the following: 100× Apo TIRF 1.49 NA objective with a correction collar; four excitation laser lines (405/488/561/642 nm) and matching TIRF quad cube (405/488/561/640 nm reflection bands); automatic TIRF illuminator with motorized X axis and manual Y axis for beam positioning and focus: perfect focus 3 system; Triple DU-897 iXon Ultra EMCCD cameras on a Cairn Tri-cam emission splitter with filters 525/50 (GFP) 600/50 (RFP) and 705/72 (Cy5); humidified incubation chamber maintained at 37° C. with 5% v/v CO2 (Tokai Hit). SPT was performed at 100 Hz for the comparison of 59HTL and 89HTL (FIG. 13E, 13F) and 50 Hz for the comparison of 40HTL, 44HTL, 1HTL, or 89HTL (FIG. 12A-12G); the imaging session was performed for ˜5000 frames using 100% of maximal excitation power (˜120 mW at the fiber end before the TIRF unit). […] For the comparison of HaloTag® ligands 59HTL and 89HTL (FIG. 13E, 13F) and the comparison of compounds 40HTL, 44HTL, 1HTL, and […] (FIG. 12A-12G), the fluorophores were excited with a 647 nm laser. To minimize drift during imaging, the incubation chamber was fully thermally equilibrated, and all imaging was conducted in an isolated ultra-clean room with minimal mechanical vibrations. The microscope, laser lines, and camera integration were controlled using the Nikon NIS-Elements software. Cells with obvious movement during acquisition were removed from further analysis. SMT analysis was based on multiple target tracing 86 (MTT) with tracking parameters similar to previous work.^84 For SPT brightness (photon counts/molecule/s), intensity values from sparsely-labeled molecules were analyzed. For the comparison of HaloTag® ligands 59HTL and 89HTL (FIG. 13E, 13F): n=147,298 single-molecule events using 59HTL; n=100,392 single-molecule events using 89HTL. […]

[5] = fluorescein derivatives; 0.1 N NaOH; data from the inventors' published work; cited from earlier work
[6] = fluorescein derivatives; 0.1 N NaOH; data from the inventors' published work; cited from earlier work; remark: listed apart in the source
[7] = Hill coefficient; data from the inventors' published work; cited from earlier work
[8] = test system: U2OS cells stably expressing HaloTag®-histone H2B fusion protein; assay: Loading experiments with NIR-excited HaloTag® ligands (nuclear fluorescence); type: cell-based; conditions: 200 nM; live cells expressing HaloTag®-histone H2B
Procedure: U2OS cells (ATCC) and U2OS cells stably expressing an integrated HaloTag®-histone H2B fusion protein (U2OS·H2B·HaloTag®) were cultured in Dulbecco's modified Eagle medium (DMEM, phenol red-free; Life Technologies) supplemented with 10% (v/v) fetal bovine serum (FBS, Life Technologies), 1 mM GlutaMAX (Life Technologies) and maintained at 37° C. in a humidified 5% (v/v) CO2 environment. These cell lines undergo regular mycoplasma testing by the Janelia Cell Culture Facility. For mitochondrial imaging using the HaloTag® system, U2OS cells were transiently transfected using nucleofection (Lonza) with a plasmid constitutively expressing a HaloTag®-TOMM20 fusion protein, which is located on the outer mitochondrial membrane. For 4^−color imaging, U2OS·H2B·HaloTag® stable cells were transiently transfected by nucleofection with plasmids constitutively expressing a SNAP-tag®-TOMM20 fusion protein, and a GFP-SKL (SKL: serine-lysine-leucine) fusion protein, a prototypical peroxisomal matrix targeting signal. All labeled cells were imaged 18-24 h post-transfection or post-plating.
For loading curve experiments (FIG. 15C), U2OS·H2B·HaloTag® stable cells were incubated with 200 nM HaloTag® ligand conjugated dyes (31HTL, 36HTL, 38HTL, 104HTL, 106HTL, 107HTL, and 108HTL) for 0-4 h at 37° C., washed 3× with dye-free media then fixed with 4% paraformaldehyde in 0.1 M phosphate buffer, pH 7.4 for 15 min at 37° C. Confocal imaging was performed on a Leica Stellaris with an HC PL APO 40×/1.25 glycerol objective using the tunable white light laser (WLL) to excite dyes at their λabs in constant power mode. Fluorescence was quantified as the integrated density of nuclear signals in single-plane images analyzed in FIJI;^82 n=100 nuclear signals per compound.

Molecule	ε [5]	λabs [5] [nm]	λem [5] [nm]	Φf [6]	ηH [7]	cellular intensity [8]	further results
CC1(C)C2=CC(=[N+]3CCC3)C=CC2=C(c2c(F)c(F)c(F)c(F)c2C(=O)[O-])c2ccc(N3CCC3)cc21 [compound 44, JF632]	–	–	–	–	–	–	ε [1]: 139,000 M^−1cm^−1; λabs [1]: 632 nm; λem [1]: 649 nm; Φf [2]: 0.54; KL-Z [3]: 3.59; performance in SPT experiments compared with 1HTL and 89HTL [4]: comparable performance
C[Si]1(C)c2cc(O)c(F)cc2C2(OC(=O)c3c(F)c(F)c(F)c(F)c32)c2cc(F)c(O)cc21 [compound 80]	67,900 M^−1cm^−1	617	635	0.32	1.50	–	–
CC1=CC(C)(C)N(C)c2cc3c(cc21)C(c1c(F)c(C(=O)NCCOCCOCCCCCCCl)c(F)c(F)c1C(=O)[O-])=c1cc2c(cc1[Si]3(C)C)=[N+](C)C(C)(C)C=C2C [38HTL, 4^−((2^−(2^−((6^−Chlorohexyl)oxy)ethoxy)ethyl)carbamoyl)-2^−(1,2,2,4,8,10,10,11,13,13-decamethyl-2,10,11,13^−tetra-hydrosilino[3,2^−g:5,6^−g′]diquinolin-6^−ylium-6(1H)-yl)-3,5,6-trifluorobenzoate]	–	–	–	–	–	relatively low intensity	–
CN1CCc2cc3c(cc21)[Si](C)(C)c1cc2c(cc1=C3c1c(F)c(C(=O)NCCOCCOCCCCCCCl)c(F)c(F)c1C(=O)[O-])CC[N+]=2C [108HTL, SiRF712-HaloTag® ligand]	–	–	–	–	–	second highest cellular intensity	–
CC1=CC(C)(C)N(C)c2cc3c(cc21)C(c1cc(C(=O)NCCOCCOCCCCCCCl)ccc1C(=O)[O-])=c1cc2c(cc1[Si]3(C)C)=[N+](C)C(C)(C)C=C2C [104HTL, 4^−((2-(2^−((6^−Chlorohexyl)oxy)ethoxy)ethyl)carbamoyl)-2^−(1,2,2,4,8,10,10,11,13,13^−decamethyl-2,10,11,13^−tetra-hydrosilino[3,2^−g:5,6^−g′]diquinolin-6^−ylium-6(1H)-yl)benzoate]	–	–	–	–	–	relatively low intensity	–
CC1=CC(C)(C)Nc2cc3c(cc21)C(c1c(F)c(C(=O)NCCOCCOCCCCCCCl)c(F)c(F)c1C(=O)O)=c1cc2c(cc1[Si]3(C)C)=NC(C)(C)C=C2C [36HTL, 4^−((2^−(2^−((6^−Chlorohexyl)oxy)ethoxy)ethyl)carbamoyl)-2,3,5^−trifluoro-6-(2,2,4,8,10,10,13,13^−octamethyl-2,10,11,13^−tetrahydrosilino [3,2^−g:5,6^−g′]diquinolin-6^−ylium-6(1H)-yl)benzoate]	–	–	–	–	–	relatively low intensity	–
C[Si]1(C)c2cc(O)c(F)cc2C2(OC(=O)c3ccccc32)c2cc(F)c(O)cc21 [compound 79]	60,900 M^−1cm^−1	596	618	0.42	1.30	–	–
[2H]C1([2H])N(c2ccc3c(c2)C(C)(C)C2=CC(=[N+]4C([2H])([2H])C([2H])([2H])C([2H])([2H])C4([2H])[2H])C=CC2=C3c2c(F)c(F)c(F)c(F)c2C(=O)[O-])C([2H])([2H])C([2H])([2H])C1([2H])[2H] [compound 40, JFX637]	–	–	–	–	–	–	ε [1]: 147,000 M^−1cm^−1; λabs [1]: 637 nm; Φf [2]: 0.56; KL-Z [3]: 6.12; performance in SPT experiments compared with 1HTL and 89HTL [4]: comparable performance
JFX650-HaloTag® ligand [89HTL, reference compound]	–	–	–	–	–	–	SPT localizations over time ([4]; 100 Hz imaging): relatively rapid bleaching
CC1(C)c2cc(O)c(F)cc2C2(OC(=O)c3ccccc32)c2cc(F)c(O)cc21 [compound 78, Virginia Orange]	90,900 M^−1cm^−1	555	581	0.40	1.46	–	–
CC1(C)c2cc(O)ccc2C2(OC(=O)c3ccccc32)c2ccc(O)cc21 [compound 74, carbofluorescein]	108,000 M^−1cm^−1	544	567	0.62	1.65	–	–
C[Si]1(C)c2cc(O)ccc2C2(OC(=O)c3ccccc32)c2ccc(O)cc21 [compound 75]	93,000 M^−1cm^−1	579	599	0.53	1.69	–	–
